Results published in patent US20060276340A1, “HERBICIDE COMPOSITION COMPRISING PYRIBAMBENZ-PROPYL OR PYRIBAMBENZ-ISOPROPYL” (Zhejiang Chem-Tech Group Co., Ltd., priority 2003, published 2006).

Legend:
Format in all cases: in vivo
Poa annua [1] = assay: greenhouse pot test, post-emergence early stage treatment
Experimental: (§1) The test soil is a formulated sandy loam soil. 9.5 centimeter diameter pots are used for herbicidal activity test.
(§2) The pots for post-emergence treatment are placed into a greenhouse and incubated for 7 to 9 days, and then subjected to leave treatment by spraying. The preparation liquid for the treatment prepared by mixing individual single-herbicides was diluted with water to the desired dosage.
(§3) The treated pots stood for one day, then were placed in a greenhouse and watered regularly. The herbicidal activities of the compositions were evaluated by visual examination after incubating for 14 to 21 days.
(§4) The herbicidal activities of the compositions were evaluated by plant symptoms such as stunting, deformity, chlorosis, and whitening. 0 represents that the compositions have no herbicidal effect or have safety to crops. 100 represents that the weeds or crops were completely killed.

Cerastium arvense = assay: as above
Experimental: as §1, §2, §3, §4

Galium aparine = assay: as above
Experimental: as §1, §2, §3, §4

Beckmannia syzigachne [2] = assay: as above; details: BECSY 2˜3 leaves
Experimental: as §1, §2, §3, §4

Poa annua [3] = assay: greenhouse pot test, Tables 1-2; details: POAAN 3 leaves
Experimental: as §1
(§5) The soil in the pot for the pre-emergence test was sprayed one day after planting. The preparation liquid for the treatment prepared by mixing individual single-herbicides was diluted with water to the desired dosage.
as §2, §3, §4

Digitrria sanguinalis = assay: greenhouse pot test, Tables 1-2; details: DIGSA 3 leaves
Experimental: as §1, §5, §2, §3, §4

Polypogon fugax = assay: greenhouse pot test, Tables 1-2; details: POLFU 3-4 leaves
Experimental: as §1, §5, §2, §3, §4

Beckmannia syzigachne [4] = assay: greenhouse pot test, Tables 1-2; details: BECSY 2 leaves
Experimental: as §1, §5, §2, §3, §4

Alopecurus aequalis = assay: greenhouse pot test, Tables 1-2
Experimental: as §1, §5, §2, §3, §4

weeds in rape field = assay: weed control in rape field, descriptive statements
Alopercurus japonicus = assay: greenhouse pot test, post-emergence early stage treatment; details: ALOJA
Experimental: as §1, §2, §3, §4

How did the “visual evaluation of weed effects” value (Poa annua [1]; POAAN 2˜3 leaves, quizalofop-ethyl 6 g/ha) turn out when `CCOC(=O)C(C)Oc1ccc(Oc2cnc3cc(Cl)ccc3n2)cc1` (stereo not shown) [quizalofop-ethyl] was run?
The value was 0%.

And the “visual evaluation of weed effects” value (Poa annua [1]; POAAN 2˜3 leaves, quizalofop-ethyl 9 g/ha)?
The value was 0%.

What about the “visual evaluation of weed effects” value (Poa annua [1]; POAAN 2˜3 leaves, quizalofop-ethyl 12 g/ha) of the same compound?
The value was 50%.

What about the “visual evaluation of weed effects” value (Poa annua [1]; POAAN 2˜3 leaves, quizalofop-ethyl 15 g/ha) of the same compound?
Its value is 60%.

What about the “visual evaluation of weed effects” value (Cerastium arvense; CERAR 3˜4 leaves, quizalofop-ethyl 6 g/ha) of the same compound?
Its value is 0%.

And the “visual evaluation of weed effects” value (Cerastium arvense; CERAR 3˜4 leaves, quizalofop-ethyl 9 g/ha)?
Its value is 0%.

And the “visual evaluation of weed effects” value (Cerastium arvense; CERAR 3˜4 leaves, quizalofop-ethyl 12 g/ha)?
The value was 0%.

And the “visual evaluation of weed effects” value (Cerastium arvense; CERAR 3˜4 leaves, quizalofop-ethyl 15 g/ha)?
Its value is 0%.

What about the “visual evaluation of weed effects” value (Galium aparine; GALAP 7˜8 leaves, quizalofop-ethyl 6 g/ha) of the same compound?
Its value is 0%.

What about the “visual evaluation of weed effects” value (Galium aparine; GALAP 7˜8 leaves, quizalofop-ethyl 9 g/ha) of the same compound?
The value was 0%.

What about the “visual evaluation of weed effects” value (Galium aparine; GALAP 7˜8 leaves, quizalofop-ethyl 12 g/ha) of the same compound?
Its value is 0%.

And the “visual evaluation of weed effects” value (Galium aparine; GALAP 7˜8 leaves, quizalofop-ethyl 15 g/ha)?
Its value is 0%.

What about the “visual evaluation of weed effects” value (Beckmannia syzigachne [2]; quizalofop-ethyl 6 g/ha) of the same compound?
Its value is 98%.

And the “visual evaluation of weed effects” value (Beckmannia syzigachne [2]; quizalofop-ethyl 9 g/ha)?
The value was 100%.

What about the “visual evaluation of weed effects” value (Beckmannia syzigachne [2]; quizalofop-ethyl 12 g/ha) of the same compound?
The value was 100%.

What about the “visual evaluation of weed effects” value (Beckmannia syzigachne [2]; quizalofop-ethyl 15 g/ha) of the same compound?
The value was 100%.

What about the “visual evaluation of weed effects” value (Poa annua [3]; 6 g/ha) of the same compound?
The value was 0%.

And the “visual evaluation of weed effects” value (Poa annua [3]; 9 g/ha)?
The value was 10%.

What about the “visual evaluation of weed effects” value (Poa annua [3]; 12 g/ha) of the same compound?
The value was 10%.

What about the “visual evaluation of weed effects” value (Poa annua [3]; 15 g/ha) of the same compound?
The value was 10%.

What about the “visual evaluation of weed effects” value (Digitrria sanguinalis; 6 g/ha) of the same compound?
Its value is 100%.

What about the “visual evaluation of weed effects” value (Digitrria sanguinalis; 9 g/ha) of the same compound?
Its value is 100%.

What about the “visual evaluation of weed effects” value (Digitrria sanguinalis; 12 g/ha) of the same compound?
Its value is 100%.

What about the “visual evaluation of weed effects” value (Digitrria sanguinalis; 15 g/ha) of the same compound?
The value was 100%.

And the “visual evaluation of weed effects” value (Polypogon fugax; 6 g/ha)?
Its value is 30%.

What about the “visual evaluation of weed effects” value (Polypogon fugax; 9 g/ha) of the same compound?
Its value is 100%.

And the “visual evaluation of weed effects” value (Polypogon fugax; 12 g/ha)?
Its value is 100%.

What about the “visual evaluation of weed effects” value (Polypogon fugax; 15 g/ha) of the same compound?
Its value is 100%.

And the “visual evaluation of weed effects” value (Beckmannia syzigachne [4]; 6 g/ha)?
Its value is 95%.

What about the “visual evaluation of weed effects” value (Beckmannia syzigachne [4]; 9 g/ha) of the same compound?
Its value is 95%.

What about the “visual evaluation of weed effects” value (Beckmannia syzigachne [4]; 12 g/ha) of the same compound?
Its value is 98%.

And the “visual evaluation of weed effects” value (Beckmannia syzigachne [4]; 15 g/ha)?
The value was 98%.

What about the “visual evaluation of weed effects” value (Alopecurus aequalis; ALOAE 0 leaf, 6 g/ha) of the same compound?
Its value is 85%.

What about the “visual evaluation of weed effects” value (Alopecurus aequalis; ALOAE 0 leaf, 9 g/ha) of the same compound?
Its value is 85%.

And the “visual evaluation of weed effects” value (Alopecurus aequalis; ALOAE 0 leaf, 12 g/ha)?
Its value is 85%.

And the “visual evaluation of weed effects” value (Alopecurus aequalis; ALOAE 0 leaf, 15 g/ha)?
The value was 85%.

And the “visual evaluation of weed effects” value (Alopecurus aequalis; ALOAE 3 leaves, 6 g/ha)?
The value was 98%.

What about the “visual evaluation of weed effects” value (Alopecurus aequalis; ALOAE 3 leaves, 9 g/ha) of the same compound?
The value was 100%.

And the “visual evaluation of weed effects” value (Alopecurus aequalis; ALOAE 3 leaves, 12 g/ha)?
Its value is 100%.

And the “visual evaluation of weed effects” value (Alopecurus aequalis; ALOAE 3 leaves, 15 g/ha)?
Its value is 100%.

And the weed control (weeds in rape field; Poa annua)?
The weed control was “weak activity”.

And the weed control (weeds in rape field; most of grasses, even herbicide-resistant sclerochloa kengiana and Beckmannia syzigachne)?
The weed control was “excellent control”.

`CCOCN(C(=O)CCl)c1c(C)cccc1CC` [acetochlor] was tested. Which “visual evaluation of weed effects” value (Poa annua [1]; POAAN, 150 g/ha) did it give?
Its value is 70%.

And the “visual evaluation of weed effects” value (Poa annua [1]; POAAN, 300 g/ha)?
Its value is 90%.

And the “visual evaluation of weed effects” value (Poa annua [1]; POAAN, 450 g/ha)?
Its value is 95%.

What about the “visual evaluation of weed effects” value (Poa annua [1]; POAAN, 600 g/ha) of the same compound?
The value was 95%.

What about the “visual evaluation of weed effects” value (Cerastium arvense; CERAR, 150 g/ha) of the same compound?
The value was 70%.

What about the “visual evaluation of weed effects” value (Cerastium arvense; CERAR, 300 g/ha) of the same compound?
Its value is 85%.

And the “visual evaluation of weed effects” value (Cerastium arvense; CERAR, 450 g/ha)?
The value was 85%.

And the “visual evaluation of weed effects” value (Cerastium arvense; CERAR, 600 g/ha)?
Its value is 85%.

And the “visual evaluation of weed effects” value (Galium aparine; GALAP, 150 g/ha)?
Its value is 40%.

What about the “visual evaluation of weed effects” value (Galium aparine; GALAP, 300 g/ha) of the same compound?
Its value is 50%.

And the “visual evaluation of weed effects” value (Galium aparine; GALAP, 450 g/ha)?
The value was 60%.

What about the “visual evaluation of weed effects” value (Galium aparine; GALAP, 600 g/ha) of the same compound?
The value was 70%.

What about the “visual evaluation of weed effects” value (Alopercurus japonicus; 150 g/ha) of the same compound?
Its value is 60%.

What about the “visual evaluation of weed effects” value (Alopercurus japonicus; 300 g/ha) of the same compound?
Its value is 90%.

And the “visual evaluation of weed effects” value (Alopercurus japonicus; 450 g/ha)?
Its value is 95%.

And the “visual evaluation of weed effects” value (Alopercurus japonicus; 600 g/ha)?
The value was 95%.
